Patent US6723702B2, “Use of relaxin treat diseases related to vasoconstriction” (RAS Medical, Inc., priority 2000, dated 2004)

Experiments:
[1] = test system: human primary umbilical vein, aortic, foreskin, and pulmonary endothelial cells; experiment: 3H-thymidine uptake, human endothelial cells; type: cell-based; details: serum-free medium
Method: Endothelial cells were derived from explant cultures of human neonatal foreskin and rat aorta. Primary human endothelial cells from umbilical vein, aorta, and lung were purchased from Clonetics-BioWhittaker Corporation (San Diego, Calif.) and cultured according to vendor instructions. ^3H-thymidine uptake was performed, as previously described, in serum-free medium. Unemori et al. (1994) Exp. Cell Res. 21:166-171.
(§1) Relaxin was then assayed for the ability to induce proliferation of endothelial cells directly. Relaxin's potential mitogenic effect was tested on human primary umbilical vein, aortic, foreskin, and pulmonary endothelial cells, as well as rat aortic endothelial cells. […] Alterations in other aspects of endothelial cell phenotype that are believed to correlate with angiogenesis were also tested. Relaxin had no effect on collagen expression, judged by SDS-PAGE of ^3H-proline-labeled cellular proteins; or metalloproteinase or tissue inhibitor of metalloproteinase-1 secretion, assessed by gelatin zymography. […] Therefore, relaxin had no apparent effect directly on endothelial cells.

[2] = test system: wound chambers at shoulder and hip of Sprague Dawley rats; experiment: Hunt-Schilling wound chamber assay; type: in vivo, rat
Method: The effect of rhRLX on normal and ischemic wound healing in two rat models of dermal wound healing was evaluated. RhRLX in vehicle, or vehicle alone, was delivered by subcutaneous infusion to Sprague-Dawley rats using an implanted ALZET7 osmotic pump (Alza Corp., Mountain View, Calif.).
In the first model, Hunt-Schilling wound chambers were implanted subcutaneously at either the shoulder or the hip region. The fluid and cells contained within each wound chamber were collected on day 18 for analysis of VEGF protein and mRNA. VEGF protein was detected and measured using ELISA. VEGF-encoding mRNA was detected using Northern blotting and RT-PCR. The granulation tissue within the wound chambers was collected for histological and immunohistochemical evaluation.
Stainless steel mesh cylinders (0.9 cm×3.4 cm) fitted with silicone rubber plugs at both ends were autoclaved prior to implantation. Chambers were implanted into two separate subcutaneous pockets (“Site 1” on the shoulder and “Site 2” on the hip) on the backs of Sprague Dawley rats. At the same time, osmotic pumps were implanted in a subcutaneous pocket at site distal to that of the chambers. At 18 days, chambers were carefully dissected free from the interstitium, and fluid aspirated using an 18-gauge needle through the silicone plugs at the end of the cylinder, and immediately placed on ice. Cells suspended within the fluid were pelleted by centrifugation, and cells and fluid were separated. Total RNA was harvested using RNAzol (Tel-Test, Inc., Friendswood, Tex.), according to vendor instructions. Fluid was immediately frozen, and assayed at a later date for cyokine content.
Primers were purchased from BioSource International (Camarillo, Calif.) and visualized using agarose gel electrophoresis.
Sense and anti-sense primers for use with the real time RT-PCR, ABI Prism 7700 Sequence Detection System were designed using the PrimerExpress version 1.0 software (PE Applied Biosystems, Inc.). Rat and human specific primer/probe sets included those for GAPDH, bFGF, the VEGF 164 aa or 120 aa rat isoforms, and their respective human homologues (VEGF 165 and VEGF 121). ABI PRISM specific primer/probes were purchased from BioSource International Inc. or PE Applied Biosystems.
RT-PCR was performed on 150 ng for the analysis of VEGF and bFGF mRNA expression. Ten nanograms of total RNA was used for GAPDH niRNA expression. PCR products using the ABI Prism 7700 Sequence Detection system (all reactions in a total volume of […]) were generated using primer/probe annealing temperatures of 58° C. and 35 cycles of PCR. Data were analyzed using Sequence Detector v1.6.3 software (Applied Biosystems/PE).
Relaxin was administered systemically to rats using osmotic pumps. In order to assess relaxin's ability to modulate expression of angiogenic cytokines at wound sites, Hunt-Schilling wound chambers were used for fluid and inflammatory cell collection. Wound chambers were implanted subcutaneously at two sites, the shoulder and the hip, distal to the site of pump implantation. Fluid and cells were collected at a point (18 days) during the healing time course when endogenous angiogenic activity and the cellular source, macrophages, were known to be present. Total RNA was harvested from wound cells and analyzed by RT-PCR for VEGF transcripts. When analyzed on an agarose gel, there were two distinct bands comprising the amplified products, corresponding to the 121aa and 164aa, isoforms of VEGF.
To assess the effect of rhRlx treatment on granulation tissue formation in normal and ischemic wounds, Hunt-Schilling wound chambers were implanted subcutaneously in either the shoulder or the more hypoxic hip region of female Sprague Dawley rats (Charles River Laboratories, Mass.). The wound chambers, fine stainless steel mesh cylinders sealed with medical grade silicone, provide a defined dead space for granulation tissue formation. […]

endothelial cells = experiment: Other aspects of endothelial cell phenotype (collagen, metalloproteinase/TIMP-1, invasion, tube formation, chemotaxis); type: cell-based
Method: as §1

[3] = test system: bFGF protein expression in human cardiac cells; experiment: Immunocytochemistry of human cardiac cell cultures; type: cell-based; details: 10 and 100 ng/ml for 24 hours
Method: Human cardiac cell cultures untreated or treated for 24 hr with 1, 10, and 100 ng/ml of relaxin were analyzed for VEGF and bFGF protein expression by immunocytochemistry. Human cardiac cells were seeded in two chamber slides at 150,000 cells per chamber 24 hours prior to treatment with relaxin. Cells were incubated without or with 10 or 100 ng/ml relaxin for 24 hours. Cells were washed with PBS and fixed with sequential treatment of 4% paraformaldehyde for 10 minutes, ice-cold acetone for 1 minute and ice-cold methanol for 1 minute before air-drying. Slides were then processed as outlined for rat heart sections with the additional use of monoclonal antibodies against vimentin or desmin (Santa Cruz Biotechnology). Cells being analyzed for bFGF expression were stained using the protocol outlined by Vector Laboratories “Vectastain Elite ABC” kit (Vector Labs.), the only deviation from the standard protocol being a 1 hour instead of a 30 minutes primary antibody incubation step. Untreated cells stained diffusely and uniformly for bFGF. Nearly 100% of all cells stained more intensely for bFGF expression following treatment with 10 and 100 ng/ml of relaxin for 24 hours.

[4] = wound chamber cells, both shoulder and hip region, day 18
[5] = wound chambers in the hip region

rhRLX: recombinant human relaxin, identical in amino acid sequence to the product of the human H2 gene; A chain of 24, B chain of 29 amino acids
3H-thymidine uptake [1]: did not alter
expression of VEGF 164 mRNA ([2]; anteriorly placed (shoulder) wound chamber, real-time RT-PCR): upregulated
bFGF transcripts in wound cells ([2]; both shoulder and hip chambers): significant upregulation
VEGF 120 mRNA ([2]; both sites, real-time RT-PCR): trends toward increases
expression of VEGF 164 mRNA ([2]; chamber placed on the hip, real-time RT-PCR): trend toward an increase
bFGF, and VEGF expression in wounds cells ([2]; hip region (Example 7)): increase
new blood vessel formation ([2]; hip region (Example 7)): increase
Expression of both VEGF isoforms, RT-PCR on agarose gel ([2]; wound cells, 18 days): appeared to be enhanced
VEGF mRNA increase compared to vehicle-treated rats [2, 4]: 31%
bFGF mRNA increase compared to vehicle-treated rats [2, 4]: 59%
weight of granulation tissue ([2]; wound chambers at the hip region, day 18 (Example 7)): significant increase
amount of extracellular matrix deposition [2, 5]: increased
amount of granulation tissue [2, 5]: 255 mg
number of capillaries [2, 5]: increased
tissue weight ([2]; wound chambers in the shoulder region): 283 mg
chemotaxis in vitro (endothelial cells): nor did it induce chemotaxis
collagen expression (endothelial cells; SDS-PAGE of 3H-proline-labeled cellular proteins): no effect
ability of endothelial cells to invade the substrate or to form tube structures (endothelial cells; Type I collagen or Matrigel substrate): no effect
metalloproteinase or tissue inhibitor of metalloproteinase-1 secretion (endothelial cells; gelatin zymography): no effect
cells stained more intensely for bFGF expression [3]: ~100%
